Each structure is given as a SMILES string.

This data set is described as follows: In vivo pharmacokinetic study in rats (plasma, HPLC). To be noted: SD rats, intragastric, FLU 40 mg/kg alone, as TF-1 (+48 mg/kg TDS) or TF-2 (+96 mg/kg TDS). The protocol:
A total of 25 healthy male SD rats were used. After adaptive feeding, rats were randomly divided into five groups (n = 5). […] Blood samples were placed in heparin-pretreated centrifuge tubes. Whole blood was centrifuged at 6,000 rpm for 3 min to separate plasma, which was stored at −20 °C or −80 °C for subsequent analysis. […] The mean plasma concentration-time curves were plotted. The non-compartmental model in DAS 2.1.1 software was used to calculate major pharmacokinetic parameters. The pharmacokinetic interactions after combined medication were evaluated by comparing parameters between monotherapy groups and TF combination groups.

For `CNCCC(Oc1ccc(C(F)(F)F)cc1)c1ccccc1` (stereo not shown) [FLU, Fluoxetine], the “t1/2z of FLU” value came to 6.563 h.

Values taken from publication PMC13382108 (Frontiers in Pharmacology, 2026).
